In brackets after ≈: the same amount, converted by molar mass. Like-named read-outs stand apart in the source and are kept apart here.
How the values were obtained:
[1] = molecular target: T1, human androgen receptor (hAR) (Homo sapiens, UniProt P10275); experiment: AR-CALUX antagonist assay (medium spiked with DHT at EC50); assay type: cell-based
T1 construct: host or cells: U2-OS human osteosarcoma cells (ATCC HTB 96), stably transfected (AR-CALUX cell line)
T1 sequence (P10275 1-920): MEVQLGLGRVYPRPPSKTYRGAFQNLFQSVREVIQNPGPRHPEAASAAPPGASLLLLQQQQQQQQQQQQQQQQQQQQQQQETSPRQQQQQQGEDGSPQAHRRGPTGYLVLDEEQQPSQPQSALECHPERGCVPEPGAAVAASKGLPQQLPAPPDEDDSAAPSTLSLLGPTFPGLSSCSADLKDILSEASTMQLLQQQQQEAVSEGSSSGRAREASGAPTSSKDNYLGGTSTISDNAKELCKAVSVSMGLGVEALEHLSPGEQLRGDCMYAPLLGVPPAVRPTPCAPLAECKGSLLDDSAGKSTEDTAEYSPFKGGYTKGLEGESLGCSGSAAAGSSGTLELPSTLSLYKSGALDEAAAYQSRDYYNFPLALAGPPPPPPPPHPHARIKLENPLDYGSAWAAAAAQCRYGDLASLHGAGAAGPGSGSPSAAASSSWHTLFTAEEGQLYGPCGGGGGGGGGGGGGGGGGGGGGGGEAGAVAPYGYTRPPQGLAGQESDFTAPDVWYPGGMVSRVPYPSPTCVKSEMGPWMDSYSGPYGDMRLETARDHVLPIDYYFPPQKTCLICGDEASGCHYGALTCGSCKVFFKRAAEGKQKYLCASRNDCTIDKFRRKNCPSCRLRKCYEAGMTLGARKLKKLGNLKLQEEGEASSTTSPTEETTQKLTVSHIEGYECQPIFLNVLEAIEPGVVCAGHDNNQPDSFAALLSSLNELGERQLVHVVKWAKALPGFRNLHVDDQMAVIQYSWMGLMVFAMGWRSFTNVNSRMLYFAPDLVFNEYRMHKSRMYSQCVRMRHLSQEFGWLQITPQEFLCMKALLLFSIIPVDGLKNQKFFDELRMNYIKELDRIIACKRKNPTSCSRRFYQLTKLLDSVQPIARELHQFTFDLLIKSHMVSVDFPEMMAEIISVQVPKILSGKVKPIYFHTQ
Description: (§1) The AR-CALUX® cell line was created by BioDetection Systems (BDS). It can be purchased from BDS with a license (https://www.biodetectionsystems.com). The human osteosarcoma cell line U2-OS (ATCC HTB 96) was transfected with 2 constructs: pSG5-neo-hAR carrying the cDNA of a human androgen receptor (hAR) under a constitutive promoter, and, a luciferase reporter gene which is preceded by a triple tandem of AREs in front of a TATA box (3x ARE Luc). […] The AR-CALUX® cell line was obtained from the test method developer BDS. EURL ECVAM prepared a master cell bank and a large working cell bank which were tested for the absence of mycoplasma, bacteria, fungi, and yeast and for the absence of Hepatitis B and C and HIV. In addition, to verifying the authenticity of the cell line, Short Tandem Repeat (STR) profiling was carried out to confirm the test system to be U2-OS cells. […] The laboratories were requested, at the end of each part of the study (Parts 1, 2, and 3), to perform a mycoplasma test of their choice. Additional aliquots were sent to EURL ECVAM for a reanalysis of authenticity.
(§2) Subsequently, the test chemical was assessed with a prescreen run (dilution steps of 10) and simultaneously with the quantitative cytotoxicity test to determine (1) cytotoxic concentrations, (2) the response, and (3) the appropriate dose range to be tested. […] The cytotoxicity test was performed once more. Test chemicals were diluted in media and consisted of 8 serial dilutions. Each dilution was tested in triplicate.
(§3) Each experiment (run) was comprised of a maximum of 6 plates. The first plate would contain 8 serial dilutions of the reference chemical DHT (for agonism) or Flutamide (for antagonism), while the positive and negative controls were added at fixed concentrations. In addition, a solvent control was added (medium without the chemical but with DMSO 0.1%).
(§4) For the antagonist assay, the medium was supplemented with DHT at EC50 concentration (standard assay). […] Each antagonist assay was accompanied by a specificity control test carried out on the same plate.
A. Positive (competitive antagonist) when the relative induction (Yc) of the test item is ≤ 80% (REF RPC80) for two or more consecutive concentrations and […]

physchem = experiment: physchem
Method: It details the cell cultivation and seeding procedure, the preparation of the reference, control and test chemicals, the procedure for agonist testing and antagonist testing, prescreen runs, and comprehensive runs, as well as data analysis and data interpretation. This SOP also includes references to the SOPs for solubility testing and cytotoxicity testing. […] Solubility was tested both in the solvent and in media under similar circumstances as would be required during the (ant)agonist testing. The initial concentration to be tested was prescribed at 50 mg/ml. Starting from the highest soluble concentration, cytotoxicity was determined with an LDH assay. Visual checking of cytotoxicity in all wells of the plate was however also required for each run.
This included an investigation by heating, centrifugation, microscopy, and visual checking. […] For the purpose of the validation study, the labs were requested to start from 50 mg/ml as the maximal stock concentration to be tested.

[2] = molecular target: T1, human androgen receptor (hAR); experiment: cell-based; assay type: cell-based
Description: as §1, §2, §3
A. Positive when the relative induction (Yc) of the test item is ≥ 10% (REF RPC10) for two or more consecutive concentrations.

[3] = molecular target: T1, human androgen receptor (hAR); assay type: cell-based
Description: as §4
the square of the correlation coefficient (R^2) is ≤ 0.9 between the relative induction of the test item (Yc) and its specificity control (Sc)

androgen receptor [4] = system: androgen receptor; set-up: method as in Park et al., 2021; conditions: ref Park et al., 2021; cited from earlier work
androgen receptor [5] = conditions: ref OECD, 2020b; cited from earlier work

Compound: CCN(CC)C(=S)SSC(=S)N(CC)CC [Disulfiram]
- Antagonist classification per run, Lab 1 ([1]; Lab 1, 3 runs): N N N
- Antagonist classification per run, Lab 2 ([1]; Lab 2, 3 runs): N N N
- Antagonist classification per run, Lab 3 ([1]; Lab 3, 3 runs): N N N
- Antagonist classification per run, Lab 4 ([1]; Lab 4, 3 runs): N N N
- solubility (physchem; aqueous buffer, kinetic from dmso stock, Solubility in medium, Lab 1, assay medium, Lab 1): 5 µg/mL (≈ 16.9 µM)
- solubility (physchem; aqueous buffer, kinetic from dmso stock, Solubility in medium, Lab 2, assay medium, Lab 2): 15 µg/mL (≈ 50.6 µM)
- solubility (physchem; aqueous buffer, kinetic from dmso stock, Solubility in medium, Lab 3, assay medium, Lab 3): 15 µg/mL (≈ 50.6 µM)
- solubility (physchem; aqueous buffer, kinetic from dmso stock, Solubility in medium, Lab 4, assay medium, Lab 4): 15 µg/mL (≈ 50.6 µM)
- solubility (physchem; organic solvent or mixture, thermodynamic from solid, Solubility in DMSO, Lab 1, DMSO, Lab 1, highest tested 50 mg/ml): > 50000 µg/mL
- solubility (physchem; organic solvent or mixture, thermodynamic from solid, Solubility in DMSO, Lab 2, DMSO, Lab 2, highest tested 50 mg/ml): > 50000 µg/mL
- solubility (physchem; organic solvent or mixture, thermodynamic from solid, Solubility in DMSO, Lab 3, DMSO, Lab 3, highest tested 50 mg/ml): > 50000 µg/mL
- solubility (physchem; organic solvent or mixture, thermodynamic from solid, Solubility in DMSO, Lab 4, DMSO, Lab 4, highest tested 50 mg/ml): > 50000 µg/mL
- Agonist classification per run, Lab 1 ([2]; Lab 1, 3 runs): N N N
- Agonist classification per run, Lab 2 ([2]; Lab 2, 3 runs): N N N
- Agonist classification per run, Lab 3 ([2]; Lab 3, 3 runs): N N N
- Agonist classification per run, Lab 4 ([2]; Lab 4, 3 runs): N N N

Compound: C[C@]12CC[C@@H]3c4ccc(O)cc4C[C@@H](CCCCCCCCC[S+]([O-])CCCC(F)(F)C(F)(F)F)[C@H]3[C@@H]1CC[C@@H]2O (stereo partly shown) [Fulvestrant]
- AR-CALUX antagonist result in words [1]: false positive
- AR-CALUX Antagonist classification ([1]; mean of classifications, specificity control taken into account): N(FP)
- Scn (normalized dose response for the specificity control) [3]: >80%
- Classification Run1 ([3]; antagonist, run 1): N(FP)
- Classification Run3 ([3]; antagonist, run 3): N(FP)b
- Shift Direction of specificity control dose response ([3]; vs standard antagonist dose response): Right

Compound: CC(C)(O)C(=O)Nc1ccc([N+](=O)[O-])c(C(F)(F)F)c1 [Hydroxyflutamide]
- Antagonist classification per run, Lab 1 [1]: P P P
- Antagonist classification per run, Lab 2 [1]: P P P
- Antagonist classification per run, Lab 3 [1]: P P P
- Antagonist classification per run, Lab 4 [1]: P P P
- 22Rv1/MMTV/GR-KO TA agonist result in words (androgen receptor [4]): positive
- AR-EcoScreen agonist result in words (androgen receptor [5]): negative
- AR-CALUX agonist result in words [2]: negative
- Agonist classification per run, Lab 1 [2]: N N N
- Agonist classification per run, Lab 2 [2]: N N N
- Agonist classification per run, Lab 3 [2]: N N N
- Agonist classification per run, Lab 4 [2]: N N N

Compound: [N-]=[N+]=[N-].[Na+] [Sodium azide]
- Antagonist classification per run, Lab 1 ([1]; Lab 1, 3 runs): N N N
- Antagonist classification per run, Lab 2 ([1]; Lab 2, 3 runs): N N N
- Antagonist classification per run, Lab 3 ([1]; Lab 3, 3 runs): N N N
- Antagonist classification per run, Lab 4 ([1]; Lab 4, 3 runs): N N N
- Solubility in DMSO, Lab 1 (physchem; DMSO, Lab 1, highest tested 50 mg/ml): 15000 µg/mL
- Solubility in DMSO, Lab 2 (physchem; DMSO, Lab 2, highest tested 50 mg/ml): 15000 µg/mL
- Solubility in DMSO, Lab 3 (physchem; DMSO, Lab 3, highest tested 50 mg/ml): 15000 µg/mL
- Solubility in DMSO, Lab 4 (physchem; DMSO, Lab 4, highest tested 50 mg/ml): 15000 µg/mL
- Solubility in medium, Lab 1 (physchem; assay medium, Lab 1): 15 µg/mL
- Solubility in medium, Lab 2 (physchem; assay medium, Lab 2): 15 µg/mL
- Solubility in medium, Lab 3 (physchem; assay medium, Lab 3): 15 µg/mL
- Solubility in medium, Lab 4 (physchem; assay medium, Lab 4): 5 µg/mL
- Agonist classification per run, Lab 1 ([2]; Lab 1, 3 runs): N N N
- Agonist classification per run, Lab 2 ([2]; Lab 2, 3 runs): N N N
- Agonist classification per run, Lab 3 ([2]; Lab 3, 3 runs): N N N
- Agonist classification per run, Lab 4 ([2]; Lab 4, 3 runs): N N N
